IC50 and inhibition data for five molecules are collected here from patent US20120183579A1, “COMPOUNDS FOR INFLAMMATION AND IMMUNE-RELATED USES” (Synta Pharmaceuticals Corp., priority 2008, published 2012).

The IC50 is the midpoint of a concentration-inhibition curve. A word on the inhibition: it is the percentage by which the read-out fell short of the control. A higher inhibition goes with a response far below the control.

One assay has as its system IL-2. The experiment in a line: Inhibition of IL-2 production (Jurkat cells activated with PHA, ELISA). Type of assay: cell-based. As to conditions: Homo sapiens, Jurkat, Jurkat/PHA/1% FBS; activity class. The protocol: Jurkat cells were placed in a 96 well plate (0.5 million cells per well in 1% FBS medium), and then a test compound of this invention was added at different concentrations. After 10 minutes, the cells were activated with PHA (final concentration 2.5 μg/mL) and incubated for 20 hours at 37° C. under 5% CO2. The final volume was 200 μL. Following incubation, the cells were centrifuged, and the supernatants collected and stored at −70° C. prior to assaying for IL-2 production. A commercial ELISA kit (IL-2 Eli-pair, Diaclone Research, Besancon, France) was used to detect production of IL-2, from which dose response curves were obtained. The IC50 value was calculated as the concentration at which 50% of maximum IL-2 production after stimulation was inhibited versus a non-stimulation control.
(An ELISA detects its analyte on a solid surface through an enzyme-linked reagent.)

The next assay has as its target T1, CRACM1/STIM1-CHOK1 (Homo sapiens, UniProt Q96D31).
T1 construct: Full length human Stim1, CracM1, CracM2 and CracM3 cDNA; Stim1 induced with doxycycline
The experiment in a line: Patch clamp inhibition of ICRAC current in CRACM1/STIM1-CHOK1 cells. Type of assay: cell-based. The note with it: at 500 nM, activity class. As for the experimental part: Manual patch clamp experiments are conducted in the tight-seal whole-cell configuration at room temperature (21-25° C.). Patch pipettes are fashioned from borosilicate glass capillary tubes and have resistances between 2-4 MO after filling with standard intracellular solution. High resolution current recordings are acquired with a computer-based patch clamp amplifier system (EPC-10, HEKA, Lambrecht, Germany). All voltages are corrected for a liquid junction potential of 10 mV between external and internal solutions with glutamate as the intracellular anion. Currents are filtered at 2.9 kHz and digitized at 10 μs intervals. Capacitive currents and series resistance are determined and corrected before each voltage ramp using the automatic capacitance compensation of the EPC-10.
In general, a whole cell patch clamp method is used to examine the effects of a compound of the invention on a channel(s) that mediates ICRAC. In such experiments, a baseline ICRAC measurement is established within the first 70 voltage ramps, or 140 seconds, for a patched cell. Then the cells are perfused with the compound to be tested and the effect of the compound on ICRAC is measured for at least an additional 440 to 500 seconds. A compound that modulates ICRAC (e.g., inhibits) is a compound that is useful in the invention for modulating CRAC ion channel activity.
Each compound is diluted from a 10 mM stock in series using DMSO. The final DMSO concentration is always kept at 0.1%.
ICRAC currents are measured using 50 msec voltage ramps between −100 mV to +100 mV. The voltage ramps are stimulated every 2 seconds for the first 70 sweeps, then every 5 seconds for the remainder of the experiment. The membrane potential is held at 0 mV between the test ramps. In a typical experiment, the peak inward currents will develop within 50-100 seconds. Once the ICRAC current is stabilized, the cells are perfused with a test compound in the extracellular solution for at least an additional 500 seconds.
Off-line analysis with the Heka PatchMaster software is used to separate the ICRAC membrane current from the cells basal background currents. In a typical recording, InsP3 stimulated ICRAC currents begin to develop in 6 to 12 seconds after whole cell is established. Therefore, the first 1-4 voltage ramps represent the basal membrane currents in the absence of ICRAC and the average value is subtracted from all subsequent traces. The current value at −80 mV for each ramp trace is then measured and plotted against time. The resulting current versus time data is exported into a Microsoft Excel spreadsheet. The % ICRAC inhibition in each cell is calculated by comparing the amount of current just prior to the compound perfusion to the amount of current after the cells has been perfused with the compound for 440-500 seconds. The IC50 value and Hill coefficient for each compound is estimated by fitting all the individual data points to a single-site Hill equation.
TREx™-CHO cells were transfected with human Stim1 (recombinant DNA in pcDNA4/TO/myc-His™ A with a myc epitope tag in the N-terminal) and either CracM1, CracM2 or CracM3 (recombinant DNA in pcDNA 3.1 with a HA epitope tag in the N-terminal). Stably expressing cells were selected by growing the transfected cells in antibiotics for two to three weeks. Individual cell clones were isolated via serial dilution. […]
For orientation: In patch-clamp work, channel activity is measured electrically.

T1 sequence (Q96D31 whole entry): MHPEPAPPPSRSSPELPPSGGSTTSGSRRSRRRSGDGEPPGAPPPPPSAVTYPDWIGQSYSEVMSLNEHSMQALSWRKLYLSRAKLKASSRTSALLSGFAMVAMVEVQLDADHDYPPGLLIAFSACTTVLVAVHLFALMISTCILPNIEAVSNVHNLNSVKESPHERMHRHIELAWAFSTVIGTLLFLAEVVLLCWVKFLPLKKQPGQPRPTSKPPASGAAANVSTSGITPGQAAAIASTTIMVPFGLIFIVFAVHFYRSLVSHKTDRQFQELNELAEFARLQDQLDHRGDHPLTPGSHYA

The molecule `CC1=C(c2ccc(NC(=O)c3ccncc3F)cc2)CN(c2nccnc2Cl)CC1` [Compound 15, N-(4-(1-(3-chloropyrazin-2-yl)-4-methyl-1,2,5,6-tetrahydropyridin-3-yl)phenyl)-3-fluoroisonicotinamide] gave an IC50 in the assay with IL-2 below 50 nM. The molecule further gave an inhibition at 0.5 µM at CRACM1/STIM1-CHOK1 of 50 to 70%.
`CC1=C(c2cnc(NC(=O)c3c(F)cccc3F)cn2)CN(c2nc(C)cs2)CC1` [Compound 1, 2,6-difluoro-N-(5-(4-methyl-1-(4-methylthiazol-2-yl)-1,2,5,6-tetrahydropyridin-3-yl)pyrazin-2-yl)benzamide] registered an IC50 in the assay with IL-2 of 50 to 100 nM. On CRACM1/STIM1-CHOK1, this molecule came in with an inhibition at 0.5 µM of 70 to 100%.
In the case of `CC1=C(c2ccc(NC(=O)c3cccc(F)c3F)cc2)CN(c2nccs2)CC1` [Compound 11, 2,3-difluoro-N-(4-(4-methyl-1-(thiazol-2-yl)-1,2,5,6-tetrahydropyridin-3-yl)phenyl)benzamide], the IC50 in the assay on IL-2 was below 50 nM. This molecule registered an inhibition at 0.5 µM on CRACM1/STIM1-CHOK1 of 70 to 100%.
`CC1=C(c2cnc(NC(=O)c3c(F)cccc3F)cn2)CN(S(=O)(=O)N(C)C)CC1` [Compound 2] returned an IC50 in the assay on IL-2 above 100 nM. Further, the inhibition at 0.5 µM on CRACM1/STIM1-CHOK1 lay within 70 to 100%.
Regarding `CC1=C(c2ccc(NC(=O)c3ccncc3C)cc2)CN(c2nccnc2Cl)CC1` [Compound 14, N-(4-(1-(3-chloropyrazin-2-yl)-4-methyl-1,2,5,6-tetrahydropyridin-3-yl)phenyl)-3-methylisonicotinamide], the IC50 with IL-2 is below 50 nM. The molecule further gave an inhibition at 0.5 µM against CRACM1/STIM1-CHOK1 of 50 to 70%.
